Literature values in US20060160157A1, “Method, compositions and classification for tumor diagnostics and treatment” (priority 2005, published 2006).

Key:
GRP-R = GRP-R (Homo sapiens, UniProt P30550); details: radiolabeled bombesin as radioligand
[1] = pH change 7.5 to 4.0

Chain of GRP-R (P30550 whole entry, species assumed): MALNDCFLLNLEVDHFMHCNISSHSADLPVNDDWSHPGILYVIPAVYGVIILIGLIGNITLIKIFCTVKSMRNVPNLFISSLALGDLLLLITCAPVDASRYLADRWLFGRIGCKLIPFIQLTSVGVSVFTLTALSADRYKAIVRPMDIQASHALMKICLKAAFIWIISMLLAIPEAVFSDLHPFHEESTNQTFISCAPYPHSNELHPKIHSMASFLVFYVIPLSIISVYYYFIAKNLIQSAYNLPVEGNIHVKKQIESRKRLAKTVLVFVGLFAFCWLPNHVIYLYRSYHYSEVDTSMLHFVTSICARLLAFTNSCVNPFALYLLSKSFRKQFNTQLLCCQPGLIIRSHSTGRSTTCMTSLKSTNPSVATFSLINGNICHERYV

Row | GRP-R binding selectivity (rank order of affinity) (GRP-R) | change in the kd rate constant (dissociation) [1] | Substance | change in the ka rate constant (association) [1]
1 | GRP >bombesin> neuromedin | – | neuromedin | –
2 | – | 1,600 times | growth hormone | 1.7 times
